# Experimental data reported in paper PMC6759494 (Tetrahedron, 2019).
# Molecular target: peptide deformylase (EcPDF) (Escherichia coli, UniProt P0A6K3)
# Assay: coupled colorimetric assay
# Type: biochemical
# Chain of peptide deformylase (EcPDF) (P0A6K3 2-169): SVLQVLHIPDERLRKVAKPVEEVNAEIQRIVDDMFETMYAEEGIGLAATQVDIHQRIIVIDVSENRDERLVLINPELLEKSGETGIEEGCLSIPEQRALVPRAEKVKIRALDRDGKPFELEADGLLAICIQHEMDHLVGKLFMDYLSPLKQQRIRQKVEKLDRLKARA
Compound,% inhibition at 4 μM,inhibition at 4 µM (read-out: % inhibition at 4 μM) [%]
"C/C=C/c1c(O)c(O)cc2c1[C@@](C)(NC(=O)/C=C/C(=O)O)C(=O)O2 (racemic) [compound 1, (±)-fumimycin]",~ 20,–
"CCCCC[C@H](CC(=O)NO)C(=O)N[C@H](C(=O)N1CCC[C@H]1CO)C(C)C [compound 2, actinonin]",–,~95
Dimethoxy-fumimycin hydroxamic acid [17f],~ 20,–
Dimethoxy-fumimycin methyl ester [17b],~ 20,–
Fumimycin Weinreb amide [17h],~ 16,–
